Data: article PMC9082971, “Nature-derived epoxy resins: Synthesis, allergenicity, and thermosetting properties of pinoresinol diglycidyl ether” (Toxicology and Industrial Health, 2022)
Read-outs that look alike come from different tables or passages of the source. Values belong to the compound of their own block, whether it stands above or below them.

Tests used:
[1] = tested on: KeratinoSens reporter keratinocytes (luciferase gene under control of the ARE element of the AKR1C2 gene); test: KeratinoSens ARE-Nrf2 luciferase assay; assay type: cell-based; conditions: for ECKS1.5: extrapolated concentration for 1.5 fold luciferase induction; for ECKS4.5: extrapolated concentration for 4.5 fold luciferase induction; for Classification: KeratinoSens, luciferase induction greater than 1.5-fold at non-cytotoxic concentrations
Protocol: (§1) KeratinoSens Assay for Sensitization and Cellular Viability. The KeratinoSens™ assay was performed according to the OECD guidelines ([OECD, 2018]). Compounds were incubated at 12 concentrations (0.98–2000 μM) for 48 h with cinnamic aldehyde as the positive control. The experiment was repeated on three independent occasions.
In Vitro Skin Sensitization: KeratinoSens ARE-Nrf2 Luciferase Assay. […] ECKS1.5 represents the extrapolated concentration for which induction of luciferase activity is above the 1.5 fold threshold (i.e., 50% enhanced luciferase activity). The ECKS4.5 values were used for comparison of sensitizing potency.

[2] = tested on: model peptide AcPHCKRM; test: Reactivity toward the model peptide AcPHCKRM (peptide depletion, HPLC/ESI-MS); conditions: 10 mM compound, 1 mM AcPHCKRM
Protocol: All solvents were degassed with argon prior to use. […] Monoepoxides PGE, 1 or 2 were prepared in DMSO (40 mM, 100 μL) together with potassium phosphate buffer (100 mM, pH 7.4) (200 μL) and separately added to a vial purged with argon containing AcPHCKRM dissolved in DMSO (4 mM, 100 μL).
Based on our previous studies regarding the chemical reactivity of the epoxide-containing compounds ([O’Boyle et al., 2014]; [Ponting et al., 2019]), the depletion of the nucleophilic hexapeptide Ac-Pro-His-Cys-Lys-Arg-Met-OH (AcPHCKRM) was analyzed in reaction mixtures at pH 7.4 with a 10-fold excess of the respective test chemical in a mixture of phosphate buffer and DMSO.

[3] = Cellular viability (MTT) in the KeratinoSens assay; assay type: cell-based; conditions: human, KeratinoSens reporter keratinocytes, 50% reduction in cellular viability, read-out: Cytotoxicity IC50
Protocol: as §1

[4] = tested on: mice and guinea pigs; conditions: cited from earlier work
[5] = tested on: KeratinoSens reporter keratinocytes (luciferase gene under control of the ARE element of the AKR1C2 gene); conditions: cited from earlier work
[6] = set-up: method as in O’Boyle et al., 2014; conditions: ref O’Boyle et al., 2014, cited from earlier work
[7] = tested on: CBA/Ca mice; conditions: cited from earlier work
[8] = tested on: KeratinoSens reporter keratinocytes; conditions: read-out: Cytotoxicity IC50; 50% reduction in cellular viability, MTT assay; ref Delaine et al., 2011; cited from earlier work
[9] = tested on: CBA/Ca mice; test: Murine local lymph node assay (LLNA); assay type: in vivo
Protocol: (§2) Experimental Animals. Female CBA/Ca mice, 7 or 9 weeks of age, were purchased from NOVA SCB Charles River, Germany. The mice were housed in HEPA filtered airflow cages and kept on standard laboratory diet and water ad lib. The regional ethics committee, Jordbruksverket, approved the protocol and the procedure was performed in accordance with the guidelines. Sensitization Potential of PinoDGE in Mice. […] Computational Techniques. Reactivity of cysteine residues toward the compounds under investigation was modeled as reactivity toward methanethiolate. Reactivity calculations were carried out at the B3LYP-D3/6–31+G**([Stephens et al., 1994]; [Becke, 1988]; [Slater, 1974]; [Goerigk and Grimme, 2011]; [Grimme et al., 2010]; [Ditchfield et al., 1971]) level of theory in Jaguar (Schrodinger LLC, N. Y. Jaguar, version 7.6, 2009). Further experimental details are contained in the supplementary information. Cross-Linking Procedure and Thermogravimetric Analysis (TGA).
(§3) In Vivo Skin Sensitizing Potency Studies. The LLNA was used to assess the skin sensitizing potency of PinoDGE. […] The standard vehicle, acetone: olive oil (AOO) (4:1), was initially used as the vehicle. […] Pure acetone is described as a suitable vehicle in the LLNA ([Jowsey et al., 2008]); however, a closer match to AOO was desired, leading to the choice of AOO 16:1.

[10] = Solubility in the LLNA test vehicle; assay type: physicochemical
Excerpt: as §3

[11] = Cross-linking with TETA and thermogravimetric analysis (TGA); assay type: physicochemical
Protocol: as §2
Cross-Linking of PinoDGE with TETA. […] Initial decomposition temperature (IDT) indicated the apparent thermal stability of the epoxy resin.

[12] = after 45 min, pH 7.4 phosphate buffer/DMSO
[13] = cross-linked with TETA, TGA under nitrogen
[14] = cured epoxy resin, Horwitz-Metzger equation
[15] = LLNA, ref Niklasson et al., 2009
[16] = AOO 16:1, 10% w/v (0.21 M), precipitating from solution on the ears of the mice

Structure (SMILES): COc1ccccc1OCC1CO1 (centres unmarked) [Compound 1, 2-((2-methoxyphenoxy)methyl)oxirane]
ECKS1.5 [1]: 23 µM
ECKS4.5 [1]: 64 µM

Structure (SMILES): O=[N+]([O-])c1ccccc1OCC1CO1 (centres unmarked) [Compound 2, 2-((2-nitrophenoxy)methyl)oxirane]
peptide remaining ([2]; after 40 min, pH 7.4): 28%
peptide remaining ([2]; at 200 min, pH 7.4): 24%
IC50 at 48 h [3]: 88 µM
Classification [1]: Sensitizer
ECKS1.5 [1]: 12 µM
ECKS4.5 [1]: 37 µM

Structure (SMILES): CC(C)(c1ccc(OCC2CO2)cc1)c1ccc(OCC2CO2)cc1 (centres unmarked) [DGEBA, diglycidyl ether of bisphenol A]
Classification as sensitizer ([4]; mice and guinea pigs, ref Thorgeirsson et al., 1978, Delaine et al., 2011, Pontén et al., 2002, Basketter et al., 2005): strong sensitizers
peptide remaining [2, 12]: 37%
peptide remaining ([2]; after 85 min, pH 7.4): 18%
peptide remaining ([2]; after 205 min, pH 7.4): 7%
ECKS1.5 [5]: 5.2 µM
ECKS4.5 [5]: 10 µM
IDT (initial decomposition temperature) [6, 13]: 358 ˚C
Rmax (maximum weight loss rate) [6, 13]: −1.58 %/˚C
Tmax (temperature at maximum rate of weight loss) [6, 13]: 382 ˚C
Ea (activation energy for decomposition) [6, 14]: 22.9 kcal/mol
EC3 [7, 15]: 0.036 M
IC50 [8]: 22 µM

Structure (SMILES): c1cc(OCC2CO2)ccc1Cc1ccc(OCC2CO2)cc1 (centres unmarked) [DGEBF, diglycidyl ether of bisphenol F]
Classification as sensitizer ([4]; in vivo): strong sensitizers

EC3 ([9]; control experiment in AOO 16:1): 11.8 % w/v
Structure (SMILES): CCCCCCC(C=O)=Cc1ccccc1 [HCA, hexylcinnamic aldehyde, reference compound]
EC3 ([7]; reported values in 4:1 AOO, ref OECD, 2010): 4.4–14.7 % w/v

Structure (SMILES): c1ccc(OCC2CO2)cc1 (centres unmarked) [PGE, phenylglycidyl ether]
peptide remaining ([2]; after 40 min, pH 7.4): 35%
peptide remaining ([2]; at 200 min, pH 7.4): 26%
Imax (fold induction) ([5]; average maximal induction of gene activity, ref Delaine et al., 2011): 56 fold induction
ECKS1.5 ([5]; extrapolated concentration for 1.5 fold luciferase induction, ref Delaine et al., 2011): 16 µM
ECKS4.5 ([5]; extrapolated concentration for 4.5 fold luciferase induction, ref Delaine et al., 2011): 63 µM
EC3 [7, 15]: 0.031 M
LLNA classification ([7]; ref Niklasson et al., 2009): strong sensitizer
IC50 [8]: 182 µM

Solubility in vehicle ([10]; AOO 16:1, precipitated from a 10% w/v solution): up to 8 % w/v
Solubility in vehicle ([10]; AOO (4:1)): ≤ 5 % w/v
solubility ([10]; acetone:olive oil (AOO) 4:1, organic solvent or mixture, AOO (4:1)): ≤ 110 mM
solubility ([10]; acetone:olive oil (AOO) 16:1, organic solvent or mixture, AOO 16:1, precipitated from a 10% w/v solution): ≤ 170 mM
maximum rate of degradation (Rmax) relative to DGEBA ([11]; Rmax as percentage of that of DGEBA): 58%
IDT (initial decomposition temperature) [11, 13]: 338 ˚C
Rmax (maximum weight loss rate) [11, 13]: −0.92 %/˚C
Tmax (temperature at maximum rate of weight loss) [11, 13]: 370 ˚C
Ea (activation energy for decomposition) [11, 14]: 30.6 kcal/mol
IDT lower than that of DGEBA ([11]; difference to DGEBA polymer): 20 °C
Tmax lower than that of DGEBA ([11]; difference to DGEBA polymer): 12 °C
(3H)thymidine incorporation ([9]; AOO 4:1, 0.10% w/v (0.0021 M)): 280 dpm/lymph node
SI ([9]; AOO 4:1, 0.10% w/v (0.0021 M)): 0.94
(3H)thymidine incorporation ([9]; AOO 4:1, 1.0% w/v (0.021 M)): 368 dpm/lymph node
SI ([9]; AOO 4:1, 1.0% w/v (0.021 M)): 1.23
(3H)thymidine incorporation ([9]; AOO 4:1, 2.5% w/v (0.053 M)): 166 dpm/lymph node
SI ([9]; AOO 4:1, 2.5% w/v (0.053 M)): 0.56
(3H)thymidine incorporation ([9]; AOO 4:1, 3.0% w/v (0.064 M)): 325 dpm/lymph node
SI ([9]; AOO 4:1, 3.0% w/v (0.064 M)): 1.09
(3H)thymidine incorporation ([9]; AOO 4:1, 5.0% w/v (0.11 M)): 327 dpm/lymph node
SI ([9]; AOO 4:1, 5.0% w/v (0.11 M)): 1.10
(3H)thymidine incorporation ([9]; AOO 16:1, 2.0% w/v (0.043 M)): 130 dpm/lymph node
SI ([9]; AOO 16:1, 2.0% w/v (0.043 M)): 0.52
(3H)thymidine incorporation ([9]; AOO 16:1, 4.0% w/v (0.085 M)): 180 dpm/lymph node
SI ([9]; AOO 16:1, 4.0% w/v (0.085 M)): 0.73
(3H)thymidine incorporation ([9]; AOO 16:1, 6.0% w/v ([…])): 195 dpm/lymph node
SI ([9]; AOO 16:1, 6.0% w/v ([…])): 0.79
(3H)thymidine incorporation ([9]; AOO 16:1, 8.0% w/v (0.17 M)): 480 dpm/lymph node
SI ([9]; AOO 16:1, 8.0% w/v (0.17 M)): 1.94
(3H)thymidine incorporation [9, 16]: 180 dpm/lymph node
SI [9, 16]: 0.73
EC3 ([9]; LLNA, AOO 4:1 and AOO 16:1): > 0.17 M
SI ([9]; any of the concentrations tested, both vehicles): ≤ 3
Structure (SMILES): COc1cc([C@H]2OC[C@H]3[C@@H]2CO[C@@H]3c2ccc(OCC3CO3)c(OC)c2)ccc1OCC1CO1 (some centres unmarked) [PinoDGE, pinoresinol diglycidyl ether]
peptide remaining [2, 12]: 8%
peptide remaining ([2]; after 85 min, pH 7.4): 5%
IC50 at 48 h [3]: 24 µM
LLNA classification ([9]; concentrations up to 0.17 M): not classified as a skin sensitizer
Classification [1]: skin sensitizer
ECKS1.5 [1]: 2.5 µM
ECKS4.5 [1]: 7.4 µM
